Test results: US20210315886A1, “IMIDAZOTETRAZINE COMPOUNDS” (The Board of Trustees of the University of Illinois, priority 2018, published 2021)
“Also recorded” adds a separate entry of the source. Read-outs that look alike come from different tables or passages of the source.

Key:
U87 cells = test: Cell viability, Alamar Blue, 7 days, U87; assay type: cell-based; conditions: Homo sapiens, U-87 MG, 168 h, Table 1a, MGMT −
Source text: Cell Culture and Reagents.

[1] = system: panel of human GBM cell lines; test: Anticancer activity against panel of human GBM cell lines; assay type: cell-based; conditions: for activity relative to TMZ in MGMT-deficient cell lines: MGMT-deficient U87 and D54 cell lines; for anticancer activity in cell culture: across all cell lines / in culture; for IC50: Homo sapiens
Procedure: Anticancer activity of C8 substituted imidazotetrazines. With a suite of imidazotetrazines in hand, each compound was evaluated against a panel of human GBM cell lines (Table 1a, Table 1b).

[2] = Mouse liver microsome stability assay; assay type: in vitro ADME; conditions: for stability to mouse liver microsomes: 2 hours
Procedure: Mouse Liver Microsome Stability Assay. A mixture of PBS (pH 7.4), NADPH regenerating system solution A (Corning Life Sciences), and NADPH regenerating system solution B (Corning Life Sciences) was incubated at 37° C. in a shaking incubator for 5 min. Next, compound was added in DMSO (final concentration 50 μM, 0.5% DMSO) before ice-cold mouse liver microsomes (Thermo Fisher, male CD-1 mice, pooled) were added (final protein concentration of 1 mg/mL). An aliquot was immediately removed, quenched with an equal volume of 100 μM internal standard and 0.5% hydrochloric acid in ice-cold acetonitrile, and centrifuged at 13,000 rcf for 3 min. The supernatant was diluted 1:5 in ddH2O and analyzed by LC-MS. The reactions were incubated at 37° C. in a shaking incubator for 2 h. A second aliquot was removed, quenched and diluted as before and analyzed by LC-MS. The ratio of the areas of analyte: internal standard at 2 hours was compared to the ratio at t0 to determine the percentage of compound remaining. Analysis was performed on an Agilent 6230 LC/MS TOF system with a 1.8 μm, 2.1×50 mm Agilent ZORBAX Eclipse Plus C18 column.

[3] = Assessment of hematological toxicity; assay type: in vivo; conditions: mice, single IV dose 125 mg/kg, blood counts after 7 days
Procedure: Assessment of hematological toxicity. […] Both lymphocyte (FIG. 3b) and neutrophil (FIG. 8a) concentrations were decreased in TMZ-treated mice. […] Total WBC, lymphocyte, and neutrophil counts for mice treated with these compounds were equivalent to those of control mice.
Assessment of Hematological Toxicity. Male CD-1 IGS mice (n=4 mice/group) were administered a single dose of 125 mg/kg compound intravenously. Imidazotetrazines were formulated with SBEβCD in sterile water immediately prior to injection. Seven days post-treatment, mice were humanely sacrificed and whole blood was collected for assessment of total white blood cells, lymphocytes, neutrophils, platelets, and red blood cells.

T98G cells = test: Cytotoxicity in T98G cells with or without O6BG pre-treatment; assay type: cell-based, human
Procedure: FIG. 4. Imidazotetrazines were added to T98G cells with or without 3 h pre-treatment of O6BG (100 μM). IC50 values after 7-day incubation and fold changes between (+/−) O6BG treatments are reported. […] Error is SEM, n≥3. Statistical significance was determined by using a two-sample Student's t-test (two-tailed test, assuming equal variance).
After 8 hours of incubation with compound, the genomic DNA was isolated, quantified, and hydrolyzed to its constituent deoxyribonucleosides, which were quantitated via LC-MS/MS analysis. […] O6BG is a pseudosubstrate for MGMT that quenches cellular stores of the enzyme, leading to the persistence of O^6-methylguanine DNA adducts.

[4] = system: GBM Br23c oncospheres intracranially implanted; test: Intracranial mouse model of GBM (Br23c oncospheres); assay type: in vivo; conditions: for increase of median survival over TMZ: equimolar to 15 mg/kg TMZ, once-per-day, 5×/week for 7 weeks
Source text: FIG. 5. Evaluation of imidazotetrazines in intracranial mouse models of GBM. GBM Br23c oncospheres were intracranially implanted into female athymic nude mice. Treatment was started 5 days post implantation. […] Compounds were formulated in 10% PEG in PBS immediately prior to each treatment. Number of mice per treatment cohort ≥5. Survival curves were compared using log-rank test.
in vivo Efficacy Models. Human GBM Br23c stem-like neurosphere cells were intracranially implanted in female athymic nude mice (150,000 cells/mouse). […] Mice were observed daily for any signs of deterioration, neurotoxicity, or movement disorders. They were inspected for signs of pain and distress, as in accordance with the Johns Hopkins Animal Care and Use Guidelines.

[5] = Hydrolytic stability in buffered saline (HPLC assay); assay type: physicochemical; conditions: aqueous solution, PBS at pH 7.4
Source text: Hydrolytic stability of C8 substituted imidazotetrazines.

[6] = cited from earlier work

Structure (SMILES)	activity relative to TMZ in MGMT-deficient cell lines [1]	anticancer activity in cell culture [1]	stability to mouse liver microsomes [2]	Fold Change between (+/−) O6BG IC50 (T98G cells)	other results
CC(=O)c1ncn2c(=O)n(C)nnc12 [Compound 17, 8-acetyl-3-methylimidazo[5,1-d][1,2,3,5]tetrazin-4(3H)-one]	effective against MGMT-deficient cell lines	retained activity in culture	generally stable to oxidative metabolism	8	IC50 (U87 cells): 44 ± 6 µM; potency compared to TMZ ([1]; in culture, despite shorter aqueous half-life): equipotent to TMZ; myelosuppression / WBC toxicity ([3]; listed as K-TMZ, 125 mg/kg): did not produce myelosuppression; also recorded: significantly less in vivo toxicity to WBCs; extension of median survival past TMZ-treated mice ([4]; oral gavage, 14.9 mg/kg once-per-day for 5 total doses): more than 50 days
Cc1ncn2c(=O)n(C)nnc12 [Compound 14, 3,8-dimethylimidazo[5,1-d][1,2,3,5]tetrazin-4(3H)-one]	as (or more) potent than TMZ	most active across all cell lines	–	–	half-life [5]: > 20 h; effect on survival in intracranial model ([4]; oral, 15 mg/kg TMZ or equimolar dose, 15 mg/kg): lack of in vivo efficacy
CN(C)C(=O)c1ncn2c(=O)n(C)nnc12 [Compound 5, N,N,3-trimethyl-4-oxo-3,4-dihydroimidazo[5,1-d][1,2,3,5]tetrazine-8-carboxamide]	–	retained activity in culture	some susceptibility to the effects of the microsomes	10	increase of median survival over TMZ ([4]; oral): 46%
CCCCN(CCCC)C(=O)c1ncn2c(=O)n(C)nnc12 [Compound 7, N,N-dibutyl-3-methyl-4-oxo-3,4-dihydroimidazo[5,1-d][1,2,3,5]tetrazine-8-carboxamide]	–	–	markedly less stability in liver microsomes	–	Stability (2 h, Microsomes) ([2]; 2 h, percentage remaining relative to t0): 1 ± 1%
Cn1nnc2c(-c3ccccc3)ncn2c1=O [Compound 23, 3-methyl-8-phenylimidazo[5,1-d][1,2,3,5]tetrazin-4(3H)-one]	as (or more) potent than TMZ	most active across all cell lines	–	–	half-life [5]: > 20 h
CNC(=O)c1ncn2c(=O)n(C)nnc12 [Compound 4, N,3-dimethyl-4-oxo-3,4-dihydroimidazo[5,1-d][1,2,3,5]tetrazine-8-carboxamide]	–	retained activity in culture	some susceptibility to the effects of the microsomes	–	increase of median survival over TMZ ([4]; oral): 24%
Cc1cnc(-c2ncn3c(=O)n(C)nnc23)o1 [Compound 27, 3-methyl-8-(5-methyloxazol-2-yl)imidazo[5,1-d][1,2,3,5]tetrazin-4(3H)-one]	as (or more) potent than TMZ	retained activity in culture	–	20	–
CCSC(=O)c1ncn2c(=O)n(C)nnc12 [Compound 10, S-ethyl 3-methyl-4-oxo-3,4-dihydroimidazo[5,1-d][1,2,3,5]tetrazine-8-carbothioate]	activity comparable to TMZ	–	–	–	–
Cn1nnc2c(C(N)=O)ncn2c1=O [TMZ, temozolomide, reference compound]	–	–	insensitive to metabolic perturbation	–	IC50 ([1]; GBM cell lines with negligible MGMT expression, read-out: IC50 in cell lines with negligible MGMT expression): ≤ 50 µM; IC50 ([1]; GBM cell lines with significant MGMT expression, read-out: IC50 in cell lines with significant MGMT expression): > 300 µM; myelosuppression / WBC toxicity [3]: white blood cell (WBC) depletion; incidence of myelotoxicity ([6]; TMZ-treated patients): ~20%; half-life ([6]; in vivo, in humans (b7: also in aqueous solutions in vitro)): ~2 h
Cn1nnc2c(Cl)ncn2c1=O [Compound 19, 8-chloro-3-methylimidazo[5,1-d][1,2,3,5]tetrazin-4(3H)-one]	as (or more) potent than TMZ	retained activity in culture	generally stable to oxidative metabolism	–	–
